# Data published in ChEMBL document CHEMBL3885861, “Open TG-GATES”.
# Organism: Rattus norvegicus
# Assay: Open TG-GATES - Regimen: Single
# Format: toxicity, organism-based, Sprague-Dawley
# Design: regimen Single, gender Male, age 6 weeks
# Conditions: in vivo, po, route gavage; for gamma-GTP / ALP / ALT / AST / BUN / CRE / Ca / Cl / DBIL / GLC / IP / K / LDH / Na / PL / RALB / TBIL / TG / TP: tissue Plasma; for APTT / Bas / Eos / Fbg / Hb / Ht / Lym / MCH / MCV / Mono / Neu / PT / Plat / RBC / Ret / WBC: tissue Blood; for KIDNEY_L / KIDNEY_R / KIDNEY_TOTAL: tissue Kidney; for LIVER: tissue Liver
structure (smiles),measurement,setting,value
NC(=O)N1c2ccccc2C=Cc2ccccc21 [CARBAMAZEPINE],gamma-GTP,"0 mg/kg, 24 h, dose level Control",0.8 IU/L
same,TERMINAL_BW,"30 mg/kg, 3 h, dose level Low",214.2 g
same,APTT,"30 mg/kg, 3 h, dose level Low",19.1 s
same,Bas,"30 mg/kg, 3 h, dose level Low",0%
same,Eos,"30 mg/kg, 3 h, dose level Low",1%
same,Fbg,"30 mg/kg, 3 h, dose level Low",212.2 mg/dL
same,Hb,"30 mg/kg, 3 h, dose level Low",13.3 g/dL
same,Ht,"30 mg/kg, 3 h, dose level Low",39.3%
same,Lym,"30 mg/kg, 3 h, dose level Low",78.2%
same,MCH,"30 mg/kg, 3 h, dose level Low",21.1 pg
same,MCV,"30 mg/kg, 3 h, dose level Low",62.4 fL
same,Mono,"30 mg/kg, 3 h, dose level Low",2.4%
same,Neu,"30 mg/kg, 3 h, dose level Low",17.8%
same,PT,"30 mg/kg, 3 h, dose level Low",12.2 s
same,Plat,"30 mg/kg, 3 h, dose level Low",121.8 x10_4/uL
same,RBC,"30 mg/kg, 3 h, dose level Low",631.2 x10_4/ul
same,Ret,"30 mg/kg, 3 h, dose level Low",6.3%
same,WBC,"30 mg/kg, 3 h, dose level Low",97.3 x10_2/uL
same,KIDNEY_L,"30 mg/kg, 3 h, dose level Low",0.9 g
same,KIDNEY_R,"30 mg/kg, 3 h, dose level Low",0.9 g
same,KIDNEY_TOTAL,"30 mg/kg, 3 h, dose level Low",1.9 g
same,LIVER,"30 mg/kg, 3 h, dose level Low",9.8 g
same,ALP,"30 mg/kg, 3 h, dose level Low",896 IU/L
same,ALT,"30 mg/kg, 3 h, dose level Low",34.8 IU/L
same,AST,"30 mg/kg, 3 h, dose level Low",66.6 IU/L
same,BUN,"30 mg/kg, 3 h, dose level Low",12.6 mg/dL
same,CRE,"30 mg/kg, 3 h, dose level Low",0.4 mg/dL
same,Ca,"30 mg/kg, 3 h, dose level Low",10.6 mg/dL
same,Cl,"30 mg/kg, 3 h, dose level Low",103.6 meq/L
same,DBIL,"30 mg/kg, 3 h, dose level Low",0.072 mg/dL
same,GLC,"30 mg/kg, 3 h, dose level Low",187.8 mg/dL
same,IP,"30 mg/kg, 3 h, dose level Low",10.1 mg/dL
same,K,"30 mg/kg, 3 h, dose level Low",3.9 meq/L
same,LDH,"30 mg/kg, 3 h, dose level Low",177 IU/L
same,Na,"30 mg/kg, 3 h, dose level Low",142.4 meq/L
same,PL,"30 mg/kg, 3 h, dose level Low",143.8 mg/dL
same,RALB,"30 mg/kg, 3 h, dose level Low",3.3 g/dL
same,TBIL,"30 mg/kg, 3 h, dose level Low",0.1 mg/dL
same,TG,"30 mg/kg, 3 h, dose level Low",51.8 mg/dL
same,TP,"30 mg/kg, 3 h, dose level Low",5.5 g/dL
same,gamma-GTP,"30 mg/kg, 3 h, dose level Low",0.6 IU/L
same,TERMINAL_BW,"30 mg/kg, 6 h, dose level Low",211.1 g
same,APTT,"30 mg/kg, 6 h, dose level Low",21.9 s
same,Bas,"30 mg/kg, 6 h, dose level Low",0%
same,Eos,"30 mg/kg, 6 h, dose level Low",1%
same,Fbg,"30 mg/kg, 6 h, dose level Low",203.8 mg/dL
same,Hb,"30 mg/kg, 6 h, dose level Low",13.3 g/dL
same,Ht,"30 mg/kg, 6 h, dose level Low",38.6%
same,Lym,"30 mg/kg, 6 h, dose level Low",80.6%
same,MCH,"30 mg/kg, 6 h, dose level Low",20.9 pg
same,MCV,"30 mg/kg, 6 h, dose level Low",60.9 fL
same,Mono,"30 mg/kg, 6 h, dose level Low",2.6%
same,Neu,"30 mg/kg, 6 h, dose level Low",14.8%
same,PT,"30 mg/kg, 6 h, dose level Low",12.9 s
same,Plat,"30 mg/kg, 6 h, dose level Low",126.6 x10_4/uL
same,RBC,"30 mg/kg, 6 h, dose level Low",634.2 x10_4/ul
same,Ret,"30 mg/kg, 6 h, dose level Low",6.1%
same,WBC,"30 mg/kg, 6 h, dose level Low",83.2 x10_2/uL
same,KIDNEY_L,"30 mg/kg, 6 h, dose level Low",1 g
same,KIDNEY_R,"30 mg/kg, 6 h, dose level Low",1 g
same,KIDNEY_TOTAL,"30 mg/kg, 6 h, dose level Low",1.9 g
same,LIVER,"30 mg/kg, 6 h, dose level Low",9.2 g
same,ALP,"30 mg/kg, 6 h, dose level Low",896 IU/L
same,ALT,"30 mg/kg, 6 h, dose level Low",34.4 IU/L
same,AST,"30 mg/kg, 6 h, dose level Low",66 IU/L
same,BUN,"30 mg/kg, 6 h, dose level Low",9.6 mg/dL
same,CRE,"30 mg/kg, 6 h, dose level Low",0.4 mg/dL
same,Ca,"30 mg/kg, 6 h, dose level Low",10.4 mg/dL
same,Cl,"30 mg/kg, 6 h, dose level Low",103.2 meq/L
same,DBIL,"30 mg/kg, 6 h, dose level Low",0.078 mg/dL
same,GLC,"30 mg/kg, 6 h, dose level Low",197.6 mg/dL
same,IP,"30 mg/kg, 6 h, dose level Low",9.6 mg/dL
same,K,"30 mg/kg, 6 h, dose level Low",4 meq/L
same,LDH,"30 mg/kg, 6 h, dose level Low",194 IU/L
same,Na,"30 mg/kg, 6 h, dose level Low",140.6 meq/L
same,PL,"30 mg/kg, 6 h, dose level Low",130.6 mg/dL
same,RALB,"30 mg/kg, 6 h, dose level Low",3.3 g/dL
same,TBIL,"30 mg/kg, 6 h, dose level Low",0.1 mg/dL
same,TG,"30 mg/kg, 6 h, dose level Low",61.6 mg/dL
same,TP,"30 mg/kg, 6 h, dose level Low",5.5 g/dL
same,gamma-GTP,"30 mg/kg, 6 h, dose level Low",0.8 IU/L
same,TERMINAL_BW,"30 mg/kg, 9 h, dose level Low",210.1 g
same,APTT,"30 mg/kg, 9 h, dose level Low",18.7 s
same,Bas,"30 mg/kg, 9 h, dose level Low",0%
same,Eos,"30 mg/kg, 9 h, dose level Low",0.8%
same,Fbg,"30 mg/kg, 9 h, dose level Low",216.4 mg/dL
same,Hb,"30 mg/kg, 9 h, dose level Low",13.1 g/dL
same,Ht,"30 mg/kg, 9 h, dose level Low",38.3%
same,Lym,"30 mg/kg, 9 h, dose level Low",75.2%
same,MCH,"30 mg/kg, 9 h, dose level Low",21.3 pg
same,MCV,"30 mg/kg, 9 h, dose level Low",62.2 fL
same,Mono,"30 mg/kg, 9 h, dose level Low",1.6%
same,Neu,"30 mg/kg, 9 h, dose level Low",21.4%
same,PT,"30 mg/kg, 9 h, dose level Low",13 s
same,Plat,"30 mg/kg, 9 h, dose level Low",113.3 x10_4/uL
same,RBC,"30 mg/kg, 9 h, dose level Low",616.2 x10_4/ul
same,Ret,"30 mg/kg, 9 h, dose level Low",6.8%
same,WBC,"30 mg/kg, 9 h, dose level Low",83.2 x10_2/uL
same,KIDNEY_L,"30 mg/kg, 9 h, dose level Low",1 g
same,KIDNEY_R,"30 mg/kg, 9 h, dose level Low",1 g
same,KIDNEY_TOTAL,"30 mg/kg, 9 h, dose level Low",2 g
same,LIVER,"30 mg/kg, 9 h, dose level Low",8.6 g
same,ALP,"30 mg/kg, 9 h, dose level Low",814.2 IU/L
same,ALT,"30 mg/kg, 9 h, dose level Low",31.4 IU/L
same,AST,"30 mg/kg, 9 h, dose level Low",62.6 IU/L
same,BUN,"30 mg/kg, 9 h, dose level Low",11.8 mg/dL
same,CRE,"30 mg/kg, 9 h, dose level Low",0.4 mg/dL
same,Ca,"30 mg/kg, 9 h, dose level Low",10.3 mg/dL
same,Cl,"30 mg/kg, 9 h, dose level Low",102 meq/L
same,DBIL,"30 mg/kg, 9 h, dose level Low",0.076 mg/dL
same,GLC,"30 mg/kg, 9 h, dose level Low",190.4 mg/dL
same,IP,"30 mg/kg, 9 h, dose level Low",9.4 mg/dL
same,K,"30 mg/kg, 9 h, dose level Low",4.1 meq/L
same,LDH,"30 mg/kg, 9 h, dose level Low",175 IU/L
same,Na,"30 mg/kg, 9 h, dose level Low",140.4 meq/L
same,PL,"30 mg/kg, 9 h, dose level Low",137.2 mg/dL
same,RALB,"30 mg/kg, 9 h, dose level Low",3.3 g/dL
same,TBIL,"30 mg/kg, 9 h, dose level Low",0.1 mg/dL
same,TG,"30 mg/kg, 9 h, dose level Low",59.6 mg/dL
same,TP,"30 mg/kg, 9 h, dose level Low",5.6 g/dL
same,gamma-GTP,"30 mg/kg, 9 h, dose level Low",0.8 IU/L
same,TERMINAL_BW,"30 mg/kg, 24 h, dose level Low",228 g
same,APTT,"30 mg/kg, 24 h, dose level Low",19.6 s
same,Bas,"30 mg/kg, 24 h, dose level Low",0%
same,Eos,"30 mg/kg, 24 h, dose level Low",1%
same,Fbg,"30 mg/kg, 24 h, dose level Low",205.8 mg/dL
same,Hb,"30 mg/kg, 24 h, dose level Low",13.4 g/dL
same,Ht,"30 mg/kg, 24 h, dose level Low",39.6%
same,Lym,"30 mg/kg, 24 h, dose level Low",78.2%
same,MCH,"30 mg/kg, 24 h, dose level Low",21.4 pg
same,MCV,"30 mg/kg, 24 h, dose level Low",63.3 fL
same,Mono,"30 mg/kg, 24 h, dose level Low",2.4%
same,Neu,"30 mg/kg, 24 h, dose level Low",18%
same,PT,"30 mg/kg, 24 h, dose level Low",12.1 s
same,Plat,"30 mg/kg, 24 h, dose level Low",118 x10_4/uL
same,RBC,"30 mg/kg, 24 h, dose level Low",626.4 x10_4/ul
same,Ret,"30 mg/kg, 24 h, dose level Low",5.8%
same,WBC,"30 mg/kg, 24 h, dose level Low",103.7 x10_2/uL
same,KIDNEY_L,"30 mg/kg, 24 h, dose level Low",1.1 g
same,KIDNEY_R,"30 mg/kg, 24 h, dose level Low",1.1 g
same,KIDNEY_TOTAL,"30 mg/kg, 24 h, dose level Low",2.1 g
same,LIVER,"30 mg/kg, 24 h, dose level Low",11.2 g
same,ALP,"30 mg/kg, 24 h, dose level Low",892.6 IU/L
same,ALT,"30 mg/kg, 24 h, dose level Low",34 IU/L
same,AST,"30 mg/kg, 24 h, dose level Low",64.6 IU/L
same,BUN,"30 mg/kg, 24 h, dose level Low",16.2 mg/dL
same,CRE,"30 mg/kg, 24 h, dose level Low",0.4 mg/dL
same,Ca,"30 mg/kg, 24 h, dose level Low",10.6 mg/dL
same,Cl,"30 mg/kg, 24 h, dose level Low",102.4 meq/L
same,DBIL,"30 mg/kg, 24 h, dose level Low",0.1 mg/dL
same,GLC,"30 mg/kg, 24 h, dose level Low",214 mg/dL
same,IP,"30 mg/kg, 24 h, dose level Low",7.7 mg/dL
same,K,"30 mg/kg, 24 h, dose level Low",4.2 meq/L
same,LDH,"30 mg/kg, 24 h, dose level Low",198.8 IU/L
same,Na,"30 mg/kg, 24 h, dose level Low",140.2 meq/L
same,PL,"30 mg/kg, 24 h, dose level Low",151.2 mg/dL
same,RALB,"30 mg/kg, 24 h, dose level Low",3.3 g/dL
same,TBIL,"30 mg/kg, 24 h, dose level Low",0.1 mg/dL
same,TG,"30 mg/kg, 24 h, dose level Low",99.8 mg/dL
same,TP,"30 mg/kg, 24 h, dose level Low",5.5 g/dL
